Test results from patent publication US9822127B2, “GAK modulators as antivirals” (Katholieke Universiteit Leuven, priority 2014, dated 2017).
Converted amounts (≈) assume the structure as drawn. Like-named read-outs stand apart in the source and are kept apart here.

What was measured:
GAK = target: T1, GAK (Homo sapiens, UniProt O14976); test: GAK binding assay (T7 phage kinase competition binding); settings: for % Ctrl: 10 µM; for remaining binding at 10 µM: read-out: % Ctrl
T1 construct: made in house; host or cells: T7 phage grown in E. coli host derived from BL21
T1 sequence (O14976 1-1311): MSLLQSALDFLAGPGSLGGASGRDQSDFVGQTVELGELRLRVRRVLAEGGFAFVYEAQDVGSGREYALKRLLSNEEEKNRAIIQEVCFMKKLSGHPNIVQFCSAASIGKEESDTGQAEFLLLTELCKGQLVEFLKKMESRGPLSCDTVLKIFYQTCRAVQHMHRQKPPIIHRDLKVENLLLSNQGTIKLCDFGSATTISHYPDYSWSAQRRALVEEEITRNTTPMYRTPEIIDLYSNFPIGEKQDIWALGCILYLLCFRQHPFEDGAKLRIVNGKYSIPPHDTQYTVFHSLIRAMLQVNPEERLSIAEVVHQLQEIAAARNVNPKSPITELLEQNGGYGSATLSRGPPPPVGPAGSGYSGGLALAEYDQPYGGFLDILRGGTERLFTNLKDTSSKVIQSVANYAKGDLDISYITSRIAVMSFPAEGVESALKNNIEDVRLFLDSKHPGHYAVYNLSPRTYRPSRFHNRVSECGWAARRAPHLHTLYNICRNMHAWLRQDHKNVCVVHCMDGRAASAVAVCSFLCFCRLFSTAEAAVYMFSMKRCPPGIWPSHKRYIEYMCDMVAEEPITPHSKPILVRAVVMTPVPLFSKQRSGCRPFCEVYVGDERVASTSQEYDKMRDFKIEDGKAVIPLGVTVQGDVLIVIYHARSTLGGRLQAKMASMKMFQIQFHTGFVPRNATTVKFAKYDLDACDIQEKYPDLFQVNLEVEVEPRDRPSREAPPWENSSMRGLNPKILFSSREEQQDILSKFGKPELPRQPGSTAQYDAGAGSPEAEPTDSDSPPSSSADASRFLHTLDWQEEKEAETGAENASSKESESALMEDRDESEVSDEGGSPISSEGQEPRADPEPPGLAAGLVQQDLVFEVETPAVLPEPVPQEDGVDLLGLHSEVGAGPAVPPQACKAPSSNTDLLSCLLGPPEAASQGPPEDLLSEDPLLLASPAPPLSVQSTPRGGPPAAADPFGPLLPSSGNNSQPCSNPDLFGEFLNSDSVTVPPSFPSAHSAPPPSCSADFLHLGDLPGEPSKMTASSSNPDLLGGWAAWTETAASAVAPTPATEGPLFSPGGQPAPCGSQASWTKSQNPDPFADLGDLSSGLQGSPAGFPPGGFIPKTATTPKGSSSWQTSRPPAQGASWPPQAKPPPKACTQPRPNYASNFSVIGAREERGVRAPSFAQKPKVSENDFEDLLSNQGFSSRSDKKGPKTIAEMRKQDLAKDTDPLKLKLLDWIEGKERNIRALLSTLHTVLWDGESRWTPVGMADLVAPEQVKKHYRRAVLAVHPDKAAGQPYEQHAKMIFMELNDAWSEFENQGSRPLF

[1] = system: SARS Coronavirus (Virus strain: Urbani); test: microbe, parasite or virus in culture; type: cell-based
[2] = Cytotoxicity in CPE assay, Vero76; settings: African green monkey
Vero76 = settings: African green monkey
in vitro = settings: African green monkey
[3] = single concentration of 10 μM, lower numbers indicate stronger hits
[4] = Severe acute respiratory syndrome coronavirus, Vero 76

Row | Compound | remaining binding at 10 µM (GAK; [3]) [%] | further results
1 | 6-bromo-6-ethanolamino-isothiazolo[4,3-b]pyridine [Example 12] |  | % Ctrl (GAK): 62%
2 | Nc1snc2cc(-c3ccccc3)cnc12 [Example 4, 3-amino-6-phenyl-isothiazolo[4,3-b]-pyridine] | 68 | 
3 | Nc1snc2cc(-c3cccnc3)cnc12 [Example 5, 3-amino-6-(3-pyridyl)-isothiazolo[4,3-b]pyridine] | 80 | 
4 | COc1ccc(-c2cnc3c(N)snc3c2)cc1OC [Example 6, 3-amino-6-(3,4-dimethoxyphenyl)-isothiazolo[4,3-b]pyridine] | 70 | 
5 | Nc1snc2cc(-c3ccc(F)cc3)cnc12 [Example 7, 3-amino-6-(4-fluorophenyl)-isothiazolo[4,3-b]pyridine] | 55 | 
6 | Nc1snc2cc(-c3ccsc3)cnc12 [Example 8, 3-amino-6-(3-thienyl)-isothiazolo[4,3-b]pyridine] | 61 | 
7 | COc1snc2cc(Br)cnc12 [Example 14, 3-methoxy-6-bromo-isothiazolo[4,3-b]pyridine] |  | % Ctrl (GAK; [3]): 87%
8 | c1ccc(-c2cnc3c(N4CCOCC4)snc3c2)cc1 [Example 23, 3-morpholino-6-phenyl-isothiazolo[4,3-b]pyridine] | 0.8 | Kd (GAK): 500 nM; EC50 [1]: 4.4 µg/mL (≈ 14.8 µM); EC50 [1, 4]: 4.5 µg/mL (≈ 15.1 µM); CC50 ([2]; CC50, Neutral Red): 50 µg/mL (≈ 168 µM); CC50 ([2]; CC50, Visual): 34 µg/mL (≈ 114 µM)
9 | Fc1ccc(-c2cnc3c(N4CCOCC4)snc3c2)cc1 [Example 24] | 11 | 
10 | c1cncc(-c2cnc3c(N4CCOCC4)snc3c2)c1 [Example 25, 3-morpholino-6-(3-pyridyl)-isothiazolo[4,3-b]pyridine] | 25 | 
11 | COc1ccc(-c2cnc3c(N4CCOCC4)snc3c2)cc1OC [Example 26] | 0 | 
12 | c1cc(-c2cnc3c(N4CCOCC4)snc3c2)cs1 [Example 27] | 0.1 | 
13 | OCCNc1snc2cc(-c3cccnc3)cnc12 [Example 28] | 45 | 
14 | OCCNc1snc2cc(-c3ccsc3)cnc12 [Example 30, 3-ethanolamino-6-(3-thienyl)-isothiazolo[4,3-b]pyridine] | 0.3 | Kd (GAK): 300 nM
15 | OCCNc1snc2cc(-c3ccccc3)cnc12 [Example 31, 3-ethanolamino-6-phenyl-isothiazolo[4,3-b]pyridine] | 18 | 
16 | OCCNc1snc2cc(-c3ccc(F)cc3)cnc12 [Example 32, 3-ethanolamino-6-(3-(4-fluorophenyl))-isothiazolo[4,3-b]pyridine] | 2.2 | 
17 | COc1snc2cc(-c3ccc(F)cc3)cnc12 [Example 34, 3-methoxy-6-(4-fluoro-phenyl)-isothiazolo[4,3-b]pyridine] | 37 | 
18 | COc1snc2cc(-c3cccnc3)cnc12 [Example 35] |  | % Ctrl (GAK): 93%
19 | COc1ccc(-c2cnc3c(OC)snc3c2)cc1OC [Example 36] |  | % Ctrl (GAK): 19%

Row | Compound | remaining binding at 10 µM (GAK; [3]) [%] | further results
20 | COc1snc2cc(-c3ccsc3)cnc12 [Example 37] |  | % Ctrl (GAK): 22%
21 | CN1CCN(c2snc3cc(-c4ccccc4)cnc23)CC1 [Example 38] | 76 | 
22 | CN1CCN(c2snc3cc(-c4cccnc4)cnc23)CC1 [Example 39, 3-(N-Me-piperazinyl)-6-(3-pyridyl)-isothiazolo[4,3-b]pyridine] | 88 | 
23 | COc1ccc(-c2cnc3c(N4CCN(C)CC4)snc3c2)cc1OC [Example 40, 3-(N-Me-piperazinyl)-6-(3,4-dimethoxyphenyl)-isothiazolo[4,3-b]pyridine] | 19 | 
24 | CN1CCN(c2snc3cc(-c4ccsc4)cnc23)CC1 [Example 41, 3-(N-Me-piperazinyl)-6-(3-thienyl)-isothiazolo[4,3-b]pyridine] | 7.4 | 
25 | CN1CCN(c2snc3cc(-c4ccc(F)cc4)cnc23)CC1 [Example 42, 3-(N-Me-piperazinyl)-6-(4-fluorophenyl)-isothiazolo[4,3-b]pyridine] | 72 | 
26 | c1csc(-c2cnc3c(N4CCOCC4)snc3c2)c1 [Example 43, 4-(6-(Thiophen-2-yl)isothiazolo[4,3-b]pyridin-3-yl)morpholine] | 0.05 | Kd (GAK): 47 nM
27 | COc1ccc(OC)c(-c2cnc3c(N4CCOCC4)snc3c2)c1 [Example 44, 4-(6-(2,5-Dimethoxyphenyl)isothiazolo[4,3-b]pyridin-3-yl)morpholine] | 0.7 | 
28 | COc1ccc(-c2cnc3c(N4CCOCC4)snc3c2)c(OC)c1 [Example 45, 4-(6-(2,4-Dimethoxyphenyl)isothiazolo[4,3-b]pyridin-3-yl)morpholine] | 6.3 | 
29 | COc1cc(-c2cnc3c(N4CCOCC4)snc3c2)ccc1OC(C)=O [Example 47, 2-Methoxy-4-(3-morpholinoisothiazolo[4,3-b]pyridin-6-yl)phenyl acetate] | 0 | 
30 | COc1cc(OC)cc(-c2cnc3c(N4CCOCC4)snc3c2)c1 [Example 48, 4-(6-(3,5-Dimethoxyphenyl)isothiazolo[4,3-b]pyridin-3-yl)morpholine] | 0.2 | 
31 | c1cc2c(cc1-c1cnc3c(N4CCOCC4)snc3c1)OCO2 [Example 51, 4-(6-(Benzo[d][1,3]dioxol-5-yl)isothiazolo[4,3-b]pyridin-3-yl)morpholine] | 51 | 
32 | c1cc(-c2cnc3c(N4CCOCC4)snc3c2)co1 [Example 52, 4-(6-(Furan-3-yl)isothiazolo[4,3-b]pyridin-3-yl)morpholine] | 0.15 | EC50 [1]: 49 µg/mL (≈ 171 µM); EC50 [1, 4]: 44 µg/mL (≈ 153 µM); CC50 (Vero76): >100 µg/mL; CC50 (in vitro): > 100 µg/mL
33 | COc1ccc(-c2cnc3c(N4CCSCC4)snc3c2)cc1OC [Example 58, 6-(3,4-dimethoxyphenyl)-3-thiomorpholinoisothiazolo[4,3-b]pyridine] | 0.8 | Kd (GAK): 230 nM
34 | COc1cc(-c2cnc3c(N4CCOCC4)snc3c2)ccc1O [Example 64, 2-methoxy-4-(3-morpholinoisothiazolo[4,3-b]pyridin-6-yl)phenol] | 0 | CC50 ([2]; CC50, Neutral Red): 0.97 µg/mL (≈ 2.82 µM); CC50 ([2]; CC50, Visual): 0.42 µg/mL (≈ 1.22 µM)
35 | COc1ccc(-c2cnc3c(N4CCC(O)CC4)snc3c2)cc1OC [Example 66, 1-(6-(3,4-dimethoxyphenyl)-isothiazolo[4,3-b]pyridin-3-yl)piperidin-4-ol] |  | EC50 [1]: 38 µg/mL (≈ 102 µM); EC50 [1, 4]: 50 µg/mL (≈ 135 µM); CC50 (Vero76): >100 µg/mL; CC50 (in vitro): > 100 µg/mL
36 | COc1ccc(-c2cnc3c(N(CCO)CCO)snc3c2)cc1OC [Example 70, 2,2′-(6-(3,4-dimethoxyphenyl)isothiazolo[4,3-b]pyridin-3-ylazanediyl)diethanol] | 4 | Kd (GAK): 320 nM
37 | COc1ccc(-c2cnc3c(N4CCCC4)snc3c2)cc1OC [Example 73, 6-(3,4-dimethoxyphenyl)-3-(pyrrolidin-1-yl)isothiazolo[4,3-b]pyridine] | 0 | Kd (GAK): 100 nM
38 | COc1ccc(-c2cnc3c(NCC4CC4)snc3c2)cc1OC [Example 76, N-(cyclopropylmethyl)-6-(3,4-dimethoxyphenyl)isothiazolo[4,3-b]pyridin-3-amine] | 0 | Kd (GAK): 27 nM; EC50 [1]: 0.54 µg/mL (≈ 1.58 µM); EC50 [1, 4]: 0.86 µg/mL (≈ 2.52 µM); CC50 ([2]; CC50, Neutral Red): 33 µg/mL (≈ 96.7 µM); CC50 ([2]; CC50, Visual): 18 µg/mL (≈ 52.7 µM)
